Test in all cases: NCI tumour cell line growth inhibition, 48 h
For experiment [1], the system named is CCRF-CEM leukemia.
Experiment [2] deals with NCI-H226 lung.
Experiment [3] has as its system OVCAR-5 ovarian.
For experiment [4], the system named is SF-539 CNS.
In experiment [5] the test system is LOX IMVI melanoma.
The subject of experiment [6] is OVCAR-4 ovarian.
Experiment [7] deals with UO-31 renal.
In experiment [8] the test system is HCC-2998 colon.
Experiment [9] concerns UACC-62 melanoma.
In experiment [10] the test system is MALME-3M melanoma.

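Cultured in 96-well plates, cells were exposed to test compound for 48 hours across five concentrations. Here, GI50 denotes the concentration required for 50% inhibition of growth. TGI marks complete inhibition of growth.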

For the compound `CC(=O)O[C@@H]1C[C@@]2(C)[C@@H]3CC=C4[C@@H](C[C@H](O)C(=O)C4(C)C)[C@]3(C)C(=O)C[C@]2(C)[C@H]1[C@@](C)(O)C(=O)/C=C/C(C)(C)OC(C)=O`, the TGI was greater than 69.2 µM in [1]; 3.31 µM in experiment [2]; greater than 86 µM in experiment [3]; 12.6 µM in experiment [4]; greater than 33 µM in [5]; greater than 32.3 µM in experiment [6]. For the same compound, the TGI is 0.881 µM in experiment [7], 16.5 µM in experiment [8] and 27.9 µM in experiment [9].

Regarding `Cc1[nH]c(-c2cc(N)ccc2Cl)c2c1C(=O)CCCC2`, the GI50 in experiment [1] is 1.06 µM; in experiment [2], 3.37 µM; in experiment [3], 6.54 µM; in [4], 3.13 µM; in [10], 2.12 µM; in [5] it was 2.25 µM. Besides, the GI50 in experiment [6] is 2.95 µM; in experiment [7], 0.477 µM; in [8], 3.39 µM; in [9] it was 0.809 µM. The TGI in [1] was greater than 100 µM; in experiment [2], greater than 100 µM; in [3] it was greater than 100 µM; in [4], 26.7 µM; in experiment [10] it was 9.94 µM; in [5], 7.39 µM. Moreover, the TGI is greater than 100 µM in [6], 15.1 µM in [7], 16.5 µM in experiment [8] and 7.2 µM in [9].

As to `COc1ccc(OC(=O)CC2Cc3cc(OC)c(OC)c(OC)c3-c3ccc(SC)c(=O)cc32)cc1` (stereo unspecified), the TGI is 10.1 µM in [1]; 0.782 µM in experiment [2]; 0.54 µM in experiment [4]; greater than 100 µM in experiment [10]; 17.8 µM in experiment [5]; greater than 100 µM in [6]. For the same compound, the TGI in experiment [7] is greater than 100 µM; in [8] it was 0.503 µM; in experiment [9] it was 21 µM.

Regarding `CN1CCN(CCCCCN=c2cc3c(=O)n(CCCCCN4CCN(C)CC4)c(=O)c4c(NCCCCCN5CCN(C)CC5)cc5c(O)n(CCCCCN6CCN(C)CC6)c(=O)c2c5c4-3)CC1`, the GI50 in [1] was 2.69 µM; in [2], 3.25 µM; in experiment [3], 2.13 µM; in experiment [4], 2.64 µM; in [10] it was 2.55 µM; in experiment [5] it was 2.94 µM. In addition, the GI50 is 2.22 µM in [6], 75 µM in [7], 5.79 µM in [8] and 4.19 µM in [9]. The TGI stood at 26 µM in experiment [1]; 21.6 µM in experiment [2]; 7.79 µM in experiment [3]; 8.32 µM in experiment [4]; 5.98 µM in experiment [10]; 12.8 µM in experiment [5]. The TGI was 5.61 µM in [6], greater than 100 µM in experiment [7], 24.4 µM in experiment [8] and 15.7 µM in [9].

Turning to `Nc1nc(N)c(CCCCc2ccccc2)c(N)n1`, the TGI in experiment [1], in experiment [2], in experiment [3], in experiment [4], in [10] and in experiment [5] was greater than 100 µM each time. Further, the TGI in experiment [6], in [7], in experiment [8] and in [9] was greater than 100 µM in each case.

Take `Cc1cccc(NC(=O)/C(=N\N)C(c2cnc3ccc([N+](=O)[O-])cc3n2)[N+](=O)[O-])c1C` (stereo unspecified): the TGI in [1], in experiment [2], in [4], in experiment [10], in experiment [5] and in [6] was greater than 100 µM throughout. In addition, the TGI in experiment [7], in experiment [8] and in experiment [9] was greater than 100 µM each time.

Turning to `COc1cc(C(=O)Nc2cc(O)c(CC=C(C)C)c(O)c2)cc2c1O[C@]1(C)CC[C@@H](O)C(C)(C)[C@H]1C2`, the GI50 is 0.0962 µM in experiment [1]; 3.04 µM in experiment [2]; 3.44 µM in experiment [3]; 0.0391 µM in experiment [4]; 2.85 µM in experiment [10]; 0.281 µM in [5]. Also, the GI50 was 10.1 µM in experiment [6], 0.506 µM in experiment [7], 3.13 µM in [8] and 0.187 µM in [9]. Further, the TGI in experiment [1] is greater than 100 µM; in experiment [2], 61.3 µM; in [3] it was 37 µM; in [4], 1.51 µM; in experiment [10], 20 µM; in experiment [5] it was 10.3 µM. Moreover, the TGI in [6] was greater than 100 µM; in experiment [7], 4.13 µM; in [8] it was 13.8 µM; in experiment [9], 1.57 µM.

As for `O=C1c2c(Br)sc(Br)c2[C@@H](NC(=O)C(F)(F)F)C1Br` (stereo partly specified), the TGI in experiment [1] turned out to be 5.64 µM; in experiment [2] it was 15.1 µM; in experiment [3] it was 24.4 µM; in experiment [4] it was 6.82 µM; in experiment [10], 4.88 µM; in experiment [5] it was 3.24 µM. Further, the TGI in [6] was 5.33 µM; in experiment [7], 12.5 µM; in experiment [8], 7.8 µM; in experiment [9], 14.6 µM.

For the compound `Clc1ccc(C2ON=C(c3ccccc3)N2C23CC4CC(CC(C4)C2)C3)cc1` (stereo unspecified), the TGI in experiment [1], in experiment [2], in [3], in experiment [4], in experiment [10] and in experiment [5] was greater than 10 µM throughout. For the same compound, the TGI in [6], in experiment [8] and in experiment [9] was greater than 10 µM each time.

In the case of `CN1CCc2nc3sc(C(N)=O)c(N)c3c(-c3cccs3)c2C1`, the GI50 in [1] is 3.77 µM; in experiment [2] it was 3.16 µM; in [4], 2.35 µM; in [10] it was 5.06 µM; in [5], 1.27 µM; in experiment [6], 7.38 µM. For the same compound, the results for the GI50 in [7], in [8] and in experiment [9] were 3.47 µM, 3.54 µM and 2.38 µM, respectively. Further, the TGI is greater than 100 µM in [1]; greater than 100 µM in experiment [2]; 6.79 µM in experiment [4]; 38.4 µM in [10]; greater than 100 µM in experiment [5]; greater than 100 µM in experiment [6]. Moreover, the TGI was greater than 100 µM in experiment [7], 20.9 µM in [8] and 6.56 µM in experiment [9].

As to `CNNC(=NS(=O)(=O)c1cc(C#N)c(NNC)cc1S)NNC`, the TGI in experiment [1], in experiment [2], in experiment [3], in experiment [4], in experiment [10] and in experiment [5] was greater than 10 µM in each case. The TGI in experiment [6], in [7] and in [8] was greater than 10 µM in each case.

Regarding `CCOC(=O)c1cc2c(cc1Cl)SC(=Nc1ccccc1)N(S(=O)(=O)c1ccc(Br)s1)S2(=O)=O`, the GI50 in experiment [1] is 4.51 µM; in experiment [2] it was 16.2 µM; in [3] it was 22 µM; in experiment [4], 14.3 µM; in experiment [5], 11.2 µM; in [6] it was 23.4 µM. In addition, the GI50 in experiment [7] is 22.1 µM; in [8], 16.7 µM; in experiment [9] it was 14.4 µM. Besides, the TGI in [1] was determined as 18.8 µM; in experiment [2] it was 35 µM; in [3], 50.8 µM; in [4], 29.3 µM; in experiment [5], 24.1 µM; in [6], 59.8 µM. The TGI in experiment [7] was determined as 53.9 µM; in [8], 31.6 µM; in [9], 28.1 µM.

For the compound `COc1ccc(/C=C(\C)[N+](=O)[O-])cc1OC`, the GI50 in experiment [2] is 19.2 µM; in experiment [3], 1.73 µM; in experiment [4], 1.74 µM; in experiment [10], 1.4 µM; in experiment [5], 1.36 µM; in [6], 1.97 µM. Besides, the GI50 was 1.68 µM in experiment [7], 1.82 µM in experiment [8] and 1.82 µM in experiment [9]. The TGI in experiment [2] is 40.5 µM; in experiment [3], 3.31 µM; in experiment [4], 3.17 µM; in experiment [10] it was 3.17 µM; in [5] it was 2.97 µM; in experiment [6] it was 4.91 µM. The TGI in [7] turned out to be 3.2 µM; in experiment [8] it was 3.29 µM; in experiment [9], 3.87 µM.

Turning to `O=C(NCCNCCO)c1cccc2ccc(-c3ccccc3)nc12`, the TGI in [1] was 27.1 µM; in experiment [2], 17.4 µM; in experiment [3] it was 18.2 µM; in experiment [4] it was 13 µM; in experiment [5] it was 10.5 µM; in experiment [6], 18.5 µM. The TGI in [7] was determined as 12 µM; in [8], 17.1 µM; in experiment [9], 13.8 µM.

Take `COc1ccc(-c2cc(=O)c3c(O)cccc3o2)c(OC)c1OC`: the TGI was greater than 100 µM in experiment [1]; greater than 100 µM in experiment [2]; greater than 100 µM in experiment [3]; 86.9 µM in experiment [4]; greater than 100 µM in [10]; greater than 100 µM in experiment [5]. Besides, the TGI in experiment [6], in [8] and in experiment [9] was greater than 100 µM in each case.

`CCOC(=O)C1Nc2ccccc2[C@H]2OCC[C@@H]12` (stereo partly specified): the TGI in experiment [1], in experiment [2], in [3], in experiment [4], in experiment [10] and in experiment [5] was greater than 100 µM in each case. The TGI in [6], in experiment [8] and in experiment [9] was greater than 100 µM throughout.

Source of the values: PubChem BioAssay (NCI).
